Measured values from publication PMC5199340, “RET Functions as a Dual-Specificity Kinase that Requires Allosteric Inputs from Juxtamembrane Elements” (Cell Reports, 2016).

Tests used:
RET [1] = molecular target: T1, RET (Homo sapiens, UniProt P07949); test: isothermal titration calorimetry (ITC); assay type: binding
T1 construct: RET JM-KD (residues 661–1012)
T1 sequence (P07949 661-1012): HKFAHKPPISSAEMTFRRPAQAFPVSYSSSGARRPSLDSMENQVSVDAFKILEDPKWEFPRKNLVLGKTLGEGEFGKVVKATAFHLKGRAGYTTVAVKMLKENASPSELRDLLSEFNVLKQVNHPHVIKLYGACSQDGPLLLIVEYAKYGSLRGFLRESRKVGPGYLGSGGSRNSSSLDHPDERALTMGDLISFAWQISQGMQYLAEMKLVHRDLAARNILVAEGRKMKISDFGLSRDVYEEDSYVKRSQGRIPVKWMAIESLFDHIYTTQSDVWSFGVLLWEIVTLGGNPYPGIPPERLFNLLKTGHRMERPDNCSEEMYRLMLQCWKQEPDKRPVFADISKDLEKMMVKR

RET [2] = molecular target: T2, RET (Homo sapiens, UniProt P07949); test: X-ray crystal structures ([…] Å and […] Å); assay type: binding
T2 construct: RET JM-KD (residues 659–1013), phosphorylated (Y809, Y905, S909, Y928)
T2 sequence (P07949 659-1013): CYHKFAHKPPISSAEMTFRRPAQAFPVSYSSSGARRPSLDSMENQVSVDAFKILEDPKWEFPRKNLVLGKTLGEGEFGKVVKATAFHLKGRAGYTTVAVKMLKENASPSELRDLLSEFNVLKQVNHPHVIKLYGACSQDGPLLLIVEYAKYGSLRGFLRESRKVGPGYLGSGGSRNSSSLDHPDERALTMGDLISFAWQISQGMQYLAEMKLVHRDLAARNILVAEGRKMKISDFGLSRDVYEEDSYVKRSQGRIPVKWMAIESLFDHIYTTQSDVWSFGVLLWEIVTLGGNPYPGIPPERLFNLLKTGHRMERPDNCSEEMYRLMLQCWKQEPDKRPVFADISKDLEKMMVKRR

Compound: Nc1ncnc2c1ncn2[C@@H]1O[C@H](COP(=O)(O)OP(=O)(O)OP(=O)(O)O)[C@@H](O)[C@H]1O [ATP]
- Kd (RET [1]): 37.5 ± 3.1 µM

Compound: Cc1ccc(-c2nn(C(C)(C)C)c3ncnc(N)c23)cc1 [PP1]
- X-ray crystal structures (2.95 Å and 3.3 Å) (RET [2]): Both crystal structures contained the PP1 tyrosine kinase inhibitor in the nucleotide-binding pocket
